Reference: patent US20060110451A1, “Formulations of [1,4]diazepino[6,7,1-IJ]quinoline derivatives” (priority 2004, published 2006)
Where two headings read alike, the source gives them in different places.

Assays:
[1] = Ascending multiple dose pharmacokinetics of enteric coated capsules in schizophrenic patients; type: in vivo, human; conditions: for Tmax / half-life / AUC(0-t) / Cmax / AUC(0-inf): plasma
Description: Ascending multiple doses of 100, 150, and 250 mg Compound A.HCl were administered as twice-daily regimen (q12h) for 10 days in cohorts of 8 schizophrenic patients (6 active and 2 placebo). Blood samples for Compound A.HCl analysis were obtained on day 1 within 2 hours of test article administration and at various time points from 0.5 to 24 hours after test article administration. On day 10, blood samples were collected up to 12 hours after dose administration. Doses were administered orally after an overnight fast of at least 10 hours on these 2 days. Trough PK samples were collected on days 6, 8, and 9 to assess whether steady-state has been reached.
FIGS. 7A and 7B show the relationship between Cmax vs. dose and AUC vs. dose, respectively.

[2] = Early toxicology testing in dogs; type: in vivo; conditions: oral suspension
Source text: Enteric-coated capsules were developed which delayed the release of the drug. […] For human clinical studies, enteric-coated pellets were developed which provided advantages over enteric-coated capsules for dose flexibility and more uniform release in the intestinal tract.

[3] = target: T1, 5-HT2C (Homo sapiens, UniProt P28335); conditions: cited from earlier work
T1 sequence (P28335 33-458): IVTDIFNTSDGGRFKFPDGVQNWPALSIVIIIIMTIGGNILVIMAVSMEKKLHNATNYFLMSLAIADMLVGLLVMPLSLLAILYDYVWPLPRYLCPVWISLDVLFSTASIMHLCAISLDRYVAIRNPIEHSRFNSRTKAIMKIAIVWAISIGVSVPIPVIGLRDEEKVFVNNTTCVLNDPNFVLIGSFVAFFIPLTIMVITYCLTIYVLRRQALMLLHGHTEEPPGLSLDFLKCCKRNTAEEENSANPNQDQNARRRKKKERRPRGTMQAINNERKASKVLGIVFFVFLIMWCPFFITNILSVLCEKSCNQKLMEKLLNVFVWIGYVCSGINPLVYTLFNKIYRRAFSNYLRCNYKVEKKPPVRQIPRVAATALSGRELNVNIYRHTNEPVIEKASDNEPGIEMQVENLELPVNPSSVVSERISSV

[4] = Single ascending dose study; type: in vivo; conditions: single oral doses of 500 mg

Cl.c1cc2c3c(c1)[C@H]1CCC[C@H]1CN3CCNC2 [Compound A.HCl, (9aR,12aS)-4,5,6,7,9,9a,10,11,12,12a-decahydrocyclopenta[c][1,4]diazepino[6,7,1-ij]quinoline hydrochloride]
relationship between dose and exposure ([1]; after excluding 2 outlier patients): approximately linear
difference in Tmax or t1/2 ([1]; at the 250 mg q12h dose level): no significant difference
differences in pharmacokinetics between healthy subjects and schizophrenic patients ([1]; human, in vivo): No significant differences
Tmax ([1]; human, oral, schizophrenic patients, single and multiple dose administration, enteric-coated formulation, read-out: mean Tmax): 4 to 5 h
half-life ([1]; human, oral, schizophrenic patients, single dose administration, read-out: mean elimination t1/2): 8 to 10 h
AUC(0-t) ([1]; human, po, 100 mg, Schizophrenia patients, multiple oral doses (q12 h) 100 mg, day 10, read-out: AUCss (AUC0-12) (Geom. Mean)): 31.2 ng·h/mL
AUC(0-t) ([1]; human, po, 100 mg, Schizophrenia patients, multiple oral doses (q12 h) 100 mg, day 10, read-out: AUCss (AUC0-12) (Mean)): ~33.2 ng·h/mL
Cmax ([1]; human, po, 100 mg, Schizophrenia patients, multiple oral doses (q12 h) 100 mg, day 10, read-out: Cmax (Geom. Mean)): 3.82 ng/mL
Cmax ([1]; human, po, 100 mg, Schizophrenia patients, multiple oral doses (q12 h) 100 mg, day 10, read-out: Cmax (Mean)): 4 ng/mL
Tmax ([1]; human, po, 100 mg, Schizophrenia patients, multiple oral doses (q12 h) 100 mg, day 10, read-out: Tmax (Geom. Mean)): 4.6 h
Tmax ([1]; human, po, 100 mg, Schizophrenia patients, multiple oral doses (q12 h) 100 mg, day 10, read-out: Tmax (Mean)): 4.8 h
AUC(0-inf) ([1]; human, po, 100 mg, Schizophrenia patients, single oral dose 100 mg, day 1, read-out: AUC0-∞ (Geom. Mean)): 27.1 ng·h/mL
AUC(0-inf) ([1]; human, po, 100 mg, Schizophrenia patients, single oral dose 100 mg, day 1, read-out: AUC0-∞ (Mean)): 30.6 ng·h/mL
Cmax ([1]; human, po, 100 mg, Schizophrenia patients, single oral dose 100 mg, day 1, read-out: Cmax (Geom. Mean)): 2.07 ng/mL
Cmax ([1]; human, po, 100 mg, Schizophrenia patients, single oral dose 100 mg, day 1, read-out: Cmax (Mean)): 2.21 ng/mL
Tmax ([1]; human, po, 100 mg, Schizophrenia patients, single oral dose 100 mg, day 1, read-out: Tmax (Geom. Mean)): 4.7 h
Tmax ([1]; human, po, 100 mg, Schizophrenia patients, single oral dose 100 mg, day 1, read-out: Tmax (Mean)): 4.8 h
half-life ([1]; human, po, 100 mg, Schizophrenia patients, single oral dose 100 mg, day 1, read-out: t1/2 (Geom. Mean) (converted)): 8.67 h
half-life ([1]; human, po, 100 mg, Schizophrenia patients, single oral dose 100 mg, day 1, read-out: t1/2 (Mean) (converted)): 8.93 h
AUC(0-t) ([1]; human, po, 150 mg, Schizophrenia patients, multiple oral doses (q12 h) 150 mg, day 10, read-out: AUCss (AUC0-12) (Geom. Mean)): 51.3 ng·h/mL
AUC(0-t) ([1]; human, po, 150 mg, Schizophrenia patients, multiple oral doses (q12 h) 150 mg, day 10, read-out: AUCss (AUC0-12) (Mean)): ~54.9 ng·h/mL
Cmax ([1]; human, po, 150 mg, Schizophrenia patients, multiple oral doses (q12 h) 150 mg, day 10, read-out: Cmax (Geom. Mean)): 6.67 ng/mL
Cmax ([1]; human, po, 150 mg, Schizophrenia patients, multiple oral doses (q12 h) 150 mg, day 10, read-out: Cmax (Mean)): 7.21 ng/mL
Tmax ([1]; human, po, 150 mg, Schizophrenia patients, multiple oral doses (q12 h) 150 mg, day 10, read-out: Tmax (Geom. Mean)): 4.2 h
Tmax ([1]; human, po, 150 mg, Schizophrenia patients, multiple oral doses (q12 h) 150 mg, day 10, read-out: Tmax (Mean)): 4.3 h
AUC(0-inf) ([1]; human, po, 150 mg, Schizophrenia patients, single oral dose 150 mg, day 1, read-out: AUC0-∞ (Geom. Mean)): 34 ng·h/mL
AUC(0-inf) ([1]; human, po, 150 mg, Schizophrenia patients, single oral dose 150 mg, day 1, read-out: AUC0-∞ (Mean)): 35.6 ng·h/mL
Cmax ([1]; human, po, 150 mg, Schizophrenia patients, single oral dose 150 mg, day 1, read-out: Cmax (Geom. Mean)): 3.09 ng/mL
Cmax ([1]; human, po, 150 mg, Schizophrenia patients, single oral dose 150 mg, day 1, read-out: Cmax (Mean)): 3.37 ng/mL
Tmax ([1]; human, po, 150 mg, Schizophrenia patients, single oral dose 150 mg, day 1, read-out: Tmax (Geom. Mean)): 4.2 h
Tmax ([1]; human, po, 150 mg, Schizophrenia patients, single oral dose 150 mg, day 1, read-out: Tmax (Mean)): 4.6 h
half-life ([1]; human, po, 150 mg, Schizophrenia patients, single oral dose 150 mg, day 1, read-out: t1/2 (Geom. Mean) (converted)): 9.25 h
half-life ([1]; human, po, 150 mg, Schizophrenia patients, single oral dose 150 mg, day 1, read-out: t1/2 (Mean) (converted)): 9.49 h
AUC(0-t) ([1]; human, po, 250 mg, Schizophrenia patients, multiple oral doses (q12 h) 250 mg, day 10, read-out: AUCss (AUC0-12) (Geom. Mean)): 134 ng·h/mL
AUC(0-t) ([1]; human, po, 250 mg, Schizophrenia patients, multiple oral doses (q12 h) 250 mg, day 10, read-out: AUCss (AUC0-12) (Mean)): ~173 ng·h/mL
Cmax ([1]; human, po, 250 mg, Schizophrenia patients, multiple oral doses (q12 h) 250 mg, day 10, read-out: Cmax (Geom. Mean)): 15.9 ng/mL
Cmax ([1]; human, po, 250 mg, Schizophrenia patients, multiple oral doses (q12 h) 250 mg, day 10, read-out: Cmax (Mean)): 20.6 ng/mL
Tmax ([1]; human, po, 250 mg, Schizophrenia patients, multiple oral doses (q12 h) 250 mg, day 10, read-out: Tmax (Mean)): 4.8 h
AUC(0-inf) ([1]; human, po, 250 mg, Schizophrenia patients, single oral dose 250 mg, day 1, read-out: AUC0-∞ (Geom. Mean)): 76.1 ng·h/mL
AUC(0-inf) ([1]; human, po, 250 mg, Schizophrenia patients, single oral dose 250 mg, day 1, read-out: AUC0-∞ (Mean)): 109 ng·h/mL
Cmax ([1]; human, po, 250 mg, Schizophrenia patients, single oral dose 250 mg, day 1, read-out: Cmax (Geom. Mean)): 5.71 ng/mL
Cmax ([1]; human, po, 250 mg, Schizophrenia patients, single oral dose 250 mg, day 1, read-out: Cmax (Mean)): 8.89 ng/mL
Tmax ([1]; human, po, 250 mg, Schizophrenia patients, single oral dose 250 mg, day 1, read-out: Tmax (Geom. Mean)): 4.7 h
Tmax ([1]; human, po, 250 mg, Schizophrenia patients, single oral dose 250 mg, day 1, read-out: Tmax (Mean)): 5 h
half-life ([1]; human, po, 250 mg, Schizophrenia patients, single oral dose 250 mg, day 1, read-out: t1/2 (Geom. Mean) (converted)): 7.74 h
half-life ([1]; human, po, 250 mg, Schizophrenia patients, single oral dose 250 mg, day 1, read-out: t1/2 (Mean) (converted)): 8.04 h
reaction noted in toxicology testing [2]: emetic reaction
5-HT2C agonist activity [3]: potent 5-HT2C agonist
dose proportionality of exposure [4]: signs of nonlinearity
